# Experimental data: patent publication US11103605B2, “PET-imaging immunomodulators” (BRISTOL-MYERS SQUIBB COMPANY, priority 2016, dated 2021)
# Assay: Stability of reconstituted [^18F]-FPPEGA in 1× PBS buffer
# Format: physicochemical
# Details: 37° C.
# Description: An aqueous [^18F]-Fluoride solution (2.0 ml, 33.3 GBq/900 mCi) was purchased from P.E.T. Net® Pharmaceuticals in West Point PA and directly transferred to a Sep-Pak light QMA [The Sep-Pak light QMA cartridge was pre-conditioned sequentially with 5 ml of 0.5 M potassium bicarbonate, 5 ml of deionized water, and 5 ml of MeCN before use.] Upon completion of this transfer, the aqueous [^18F] fluoride was released from the QMA Sep-Pak by the sequential addition of potassium carbonate (15 mg/ml; 0.1 ml) followed by a mixture of potassium carbonate (30 mg/ml, 0.1 ml), 4,7,13,16,21,24-hexaoxa-1,10-diazabicyclo[8.8.8]hexacosane (15 mg, 0.04 mmol) and 1.2 ml of MeCN. The solvent was evaporated under a gentle stream of nitrogen at 90° C. and vacuum. Azeotropic drying was repeated twice with 1 ml portions of acetonitrile to generate the anhydrous K.2.2.2/K[^18F]F complex. […] The entire contents of the crude reaction mixture was then transferred, loaded, and purified using reverse phase HPLC under the following conditions: HPLC Column: Luna C18 250×10 Solvent A: 0.1% TFA in DI water; solvent B: 0.1% TFA in acetonitrile at a flow rate of 4.6 ml/minute using isocratic method 32% B while the UV was monitored at 280 nm. […]
compound,measurement,value
[N-]=[N+]=NCCOCCOCCOCCOc1cccnc1[18F] [[^18F]-3-(2-(2-(2-(2-azidoethoxy)ethoxy)ethoxy)ethoxy)-2-fluoropyridine],stable in 100% 1× PBS buffer,over 1 hour
